Reference: PubChem BioAssay (NCI)
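Exposure lasted 48 hours, with cells grown in 96-well plates and compounds tested at five concentrations. GI50 is the concentration that inhibits growth by half. TGI is the concentration that stops growth completely.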

Assays:
Test in all cases: DTP human tumour cell line panel, 48 h
OVCAR-4 ovarian = tested on: OVCAR-4 ovarian
IGROV1 ovarian = tested on: IGROV1 ovarian
786-0 renal = tested on: 786-0 renal
SF-268 CNS = tested on: SF-268 CNS
HT29 colon = tested on: HT29 colon
OVCAR-5 ovarian = tested on: OVCAR-5 ovarian
NCI/ADR-RES ovarian = tested on: NCI/ADR-RES ovarian
BT-549 breast = tested on: BT-549 breast
HOP-62 NSCLC = tested on: HOP-62 NSCLC
HCT-15 colon = tested on: HCT-15 colon
CAKI-1 renal = tested on: CAKI-1 renal
T-47D breast = tested on: T-47D breast
NCI-H23 lung = tested on: NCI-H23 lung
MCF7 breast = tested on: MCF7 breast
KM12 colon = tested on: KM12 colon
DU-145 prostate = tested on: DU-145 prostate
K-562 leukemia = tested on: K-562 leukemia
SN12C renal = tested on: SN12C renal
A549 NSCLC = tested on: A549 NSCLC
UACC-257 melanoma = tested on: UACC-257 melanoma
HCC-2998 colon = tested on: HCC-2998 colon
EKVX NSCLC = tested on: EKVX NSCLC
COLO 205 colon = tested on: COLO 205 colon
NCI-H460 lung = tested on: NCI-H460 lung
CCRF-CEM leukemia = tested on: CCRF-CEM leukemia
HCT-116 colon = tested on: HCT-116 colon
SK-MEL-28 melanoma = tested on: SK-MEL-28 melanoma
MDA-MB-435 = tested on: MDA-MB-435
TK-10 renal = tested on: TK-10 renal
UACC-62 melanoma = tested on: UACC-62 melanoma
HS 578T breast = tested on: HS 578T breast
NCI-H522 lung = tested on: NCI-H522 lung
LOX IMVI melanoma = tested on: LOX IMVI melanoma
NCI-H226 lung = tested on: NCI-H226 lung
SNB-75 CNS = tested on: SNB-75 CNS
OVCAR-3 ovarian = tested on: OVCAR-3 ovarian
A498 renal = tested on: A498 renal
M14 melanoma = tested on: M14 melanoma
SW-620 colon = tested on: SW-620 colon
MDA-MB-468 breast = tested on: MDA-MB-468 breast
OVCAR-8 ovarian = tested on: OVCAR-8 ovarian
RXF 393 renal = tested on: RXF 393 renal
ACHN renal = tested on: ACHN renal
SK-MEL-5 melanoma = tested on: SK-MEL-5 melanoma
PC-3 prostate = tested on: PC-3 prostate
SNB-19 CNS = tested on: SNB-19 CNS
SF-295 CNS = tested on: SF-295 CNS
MALME-3M melanoma = tested on: MALME-3M melanoma
HL-60(TB) leukemia = tested on: HL-60(TB) leukemia
SR leukemia = tested on: SR leukemia
MOLT-4 leukemia = tested on: MOLT-4 leukemia
SF-539 CNS = tested on: SF-539 CNS
HOP-92 NSCLC = tested on: HOP-92 NSCLC
SK-OV-3 ovarian = tested on: SK-OV-3 ovarian
UO-31 renal = tested on: UO-31 renal
U251 CNS = tested on: U251 CNS
SK-MEL-2 melanoma = tested on: SK-MEL-2 melanoma
MDA-MB-231 breast = tested on: MDA-MB-231 breast

Molecule `COc1ccc(/C=C/C(=O)c2ccc(S(=O)(=O)NCCNc3nc(Nc4ccc(F)cc4)nc(N(C)C)n3)cc2)cc1` has a GI50 (OVCAR-4 ovarian) of 4.12 µM, a TGI (OVCAR-4 ovarian) of over 100 µM and a GI50 (IGROV1 ovarian) of 10.8 µM. The TGI (IGROV1 ovarian) was 45.6 µM, the GI50 (786-0 renal) was 6.33 µM and the TGI (786-0 renal) was over 100 µM. The GI50 (SF-268 CNS) was 4.43 µM, the TGI (SF-268 CNS) was 55.8 µM and the GI50 (HT29 colon) was 1.83 µM. It also gave a TGI (HT29 colon) of 3.73 µM, a GI50 (OVCAR-5 ovarian) of 8.44 µM and a TGI (OVCAR-5 ovarian) of 45.9 µM. It also gave a GI50 (NCI/ADR-RES ovarian) of 5.66 µM, a TGI (NCI/ADR-RES ovarian) of 35.5 µM and a GI50 (BT-549 breast) of 13.2 µM. For the same molecule, the TGI (BT-549 breast) was 27.4 µM, the GI50 (HOP-62 NSCLC) was 17.1 µM and the TGI (HOP-62 NSCLC) was over 100 µM. It also gave a GI50 (HCT-15 colon) of 2.71 µM, a TGI (HCT-15 colon) of 7.07 µM and a GI50 (CAKI-1 renal) of 3.34 µM. It also gave a TGI (CAKI-1 renal) of over 100 µM, a GI50 (T-47D breast) of 3.78 µM and a TGI (T-47D breast) of 89.8 µM. For the same molecule, the GI50 (NCI-H23 lung) was 10.4 µM, the TGI (NCI-H23 lung) was 50.5 µM and the GI50 (MCF7 breast) was 1.93 µM. For the same molecule, the TGI (MCF7 breast) was 5.85 µM, the GI50 (KM12 colon) was 4.01 µM and the TGI (KM12 colon) was 16.7 µM. It also gave a GI50 (DU-145 prostate) of 7.54 µM, a TGI (DU-145 prostate) of over 100 µM and a GI50 (K-562 leukemia) of 3.99 µM. The TGI (K-562 leukemia) was over 100 µM, the GI50 (SN12C renal) was 3.6 µM and the TGI (SN12C renal) was 13.3 µM. It also gave a GI50 (A549 NSCLC) of 6.54 µM, a TGI (A549 NSCLC) of over 100 µM and a GI50 (UACC-257 melanoma) of 13.3 µM. It also gave a TGI (UACC-257 melanoma) of 38.4 µM, a GI50 (HCC-2998 colon) of 5.47 µM and a TGI (HCC-2998 colon) of 18 µM. For the same molecule, the GI50 (EKVX NSCLC) was 4.12 µM, the TGI (EKVX NSCLC) was 22.3 µM and the GI50 (COLO 205 colon) was 3.46 µM. It also gave a TGI (COLO 205 colon) of 14.3 µM, a GI50 (NCI-H460 lung) of 4.11 µM and a TGI (NCI-H460 lung) of 21.6 µM. For the same molecule, the GI50 (CCRF-CEM leukemia) was 4.09 µM, the TGI (CCRF-CEM leukemia) was over 100 µM and the GI50 (HCT-116 colon) was 1.86 µM. The TGI (HCT-116 colon) was 3.62 µM, the GI50 (SK-MEL-28 melanoma) was 5.23 µM and the TGI (SK-MEL-28 melanoma) was 19 µM. The GI50 (MDA-MB-435) was 5.47 µM, the TGI (MDA-MB-435) was 23.4 µM and the GI50 (TK-10 renal) was 8.09 µM. For the same molecule, the TGI (TK-10 renal) was over 100 µM, the GI50 (UACC-62 melanoma) was 4.79 µM and the TGI (UACC-62 melanoma) was 19.3 µM. The GI50 (HS 578T breast) was 4.68 µM, the TGI (HS 578T breast) was 44.8 µM and the GI50 (NCI-H522 lung) was 2.55 µM. For the same molecule, the TGI (NCI-H522 lung) was 12.5 µM, the GI50 (LOX IMVI melanoma) was 3.23 µM and the TGI (LOX IMVI melanoma) was 11.5 µM. It also gave a GI50 (NCI-H226 lung) of 3.8 µM, a TGI (NCI-H226 lung) of 20.4 µM and a GI50 (SNB-75 CNS) of 3.57 µM. For the same molecule, the TGI (SNB-75 CNS) was over 100 µM, the GI50 (OVCAR-3 ovarian) was 5.01 µM and the TGI (OVCAR-3 ovarian) was 19.9 µM. For the same molecule, the GI50 (A498 renal) was 10 µM, the TGI (A498 renal) was 29.7 µM and the GI50 (M14 melanoma) was 4.27 µM. The TGI (M14 melanoma) was 19.2 µM, the GI50 (SW-620 colon) was 5.42 µM and the TGI (SW-620 colon) was 19.7 µM. It also gave a GI50 (MDA-MB-468 breast) of 2.57 µM, a TGI (MDA-MB-468 breast) of 10.3 µM and a GI50 (OVCAR-8 ovarian) of 9.51 µM. For the same molecule, the TGI (OVCAR-8 ovarian) was over 100 µM, the GI50 (RXF 393 renal) was 2.59 µM and the TGI (RXF 393 renal) was 12.3 µM. It also gave a GI50 (ACHN renal) of 3.4 µM, a TGI (ACHN renal) of over 100 µM and a GI50 (SK-MEL-5 melanoma) of 3.5 µM. For the same molecule, the TGI (SK-MEL-5 melanoma) was 13.2 µM, the GI50 (PC-3 prostate) was 3.5 µM and the TGI (PC-3 prostate) was over 100 µM. It also gave a GI50 (SNB-19 CNS) of 5.58 µM, a TGI (SNB-19 CNS) of 45.5 µM and a GI50 (SF-295 CNS) of 5.05 µM. It also gave a TGI (SF-295 CNS) of 18.7 µM, a GI50 (MALME-3M melanoma) of 10.6 µM and a TGI (MALME-3M melanoma) of 43.9 µM. It also gave a GI50 (HL-60(TB) leukemia) of 3.6 µM, a TGI (HL-60(TB) leukemia) of 31.5 µM and a GI50 (SR leukemia) of 2.97 µM. It also gave a TGI (SR leukemia) of 13.2 µM, a GI50 (MOLT-4 leukemia) of 3.12 µM and a TGI (MOLT-4 leukemia) of 13.2 µM. For the same molecule, the GI50 (SF-539 CNS) was 10.3 µM, the TGI (SF-539 CNS) was 23 µM and the GI50 (HOP-92 NSCLC) was 3.25 µM. It also gave a TGI (HOP-92 NSCLC) of 31 µM, a GI50 (SK-OV-3 ovarian) of 13.9 µM and a TGI (SK-OV-3 ovarian) of 76.3 µM. For the same molecule, the GI50 (UO-31 renal) was 3.78 µM, the TGI (UO-31 renal) was 99.4 µM and the GI50 (U251 CNS) was 6.7 µM. It also gave a TGI (U251 CNS) of 21.5 µM, a GI50 (SK-MEL-2 melanoma) of 8.1 µM and a TGI (SK-MEL-2 melanoma) of 22.3 µM. For the same molecule, the GI50 (MDA-MB-231 breast) was 2.73 µM and the TGI (MDA-MB-231 breast) was 10.5 µM.
